# Measurements: patent publication EP0280167A2, “Use of lipophile anthracyclines for the secondary treatment of anthracycline-resistant tumors, composition containing a lipophile anthracycline and preparation thereof” (BEHRINGWERKE Aktiengesellschaft, priority 1987, dated 1988)
# Read-outs that look alike come from different tables or passages of the source.
# What was measured:
# [1] = tested on: resistente L1210 Zellen; assay: Proliferation test: cytotoxicity on adriamycin-resistant L1210 cells; type: cell-based; conditions: resistant line grown by repeated 1 h incubation with rising Adriamycin concentrations
# Text: (§1) Die Züchtung von adriamycin-resistenten L1210 Zellen erfolgte durch regelmäßig wiederholte, einstündige Inkubation von sensitiven L1210 Zellen mit steigenden Konzentrationen an Adriamycin bis ein Resistenzgrad (IC₅₀ resistente L1210/IC₅₀ sensitive L1210) gegenüber Adriamycin von etwa 80 erreicht war.
# [2] = physchem; type: physicochemical; conditions: for logD: octanol/tris buffer
# Description: Bestimmung des Oktanol-Wasser-Verteilungskoeffizienten P
# Zu 1 ml einer 2-10 µmol/l Lösung der Anthracycline in oktanol-gesättigtem Tris-Puffer, pH 7, wurde 1 ml puffer-gesättigtes Oktanol gegeben und für etwa 1 h bei Raumtemperatur geschüttelt. Die wässrige Phase wurde anschliessend entnommen und die Substanzkonzentration in einem Fluoreszenzphotometer durch Vergleich mit Proben bekannter Konzentration bestimmt. Die Konzentration in der organischen Phase wurde durch Subtraktion der in der wässrigen Phase gefundenen Konzentration von der gesamten eingesetzten Konzentration ermittelt. Der Verteilungskoeffizient wurde berechnet nach der Formel: [formula]
# [3] = tested on: sensitive L1210 Leukämiezellen; assay: Adriamycin uptake in sensitive L1210 cells with and without a lipophilic anthracycline (HPLC/fluorescence); type: cell-based; conditions: for Adriamycinaufnahme (in % der unbehandelten Kontrolle ohne Zusatz) L1210: 1 h, 37°C, sensitive L1210
# Description: (§2) Zur Bestimmung der Adriamycinaufnahme wurden sensitive oder resistente Zellen (2 x 10⁵/ml) in dem Zellkulturmedium RPMI 1640 für 1h bei 37°C mit Adriamycin in Gegenwart und Abwesenheit eines lipophilen Anthracyclins inkubiert. Die Zellsuspension (5 ml) wurde danach zentrifugiert (1 min, 2000 g), das Zellpellet zweimal mit kalter phosphat-gepufferter Kochsalzlösung gewaschen und anschließend durch Zugabe von 100 µl ^RTriton X-100, 800 µl DNAse (Sigma, FRG) und 100 µl internem Standard (Daunomycin, 1 µg/ml) lysiert. Adriamycin und interner Standard wurden mit Hilfe von mit C18-Alkylresten derivatisiertem Kieselgel gefüllten Säulen (Bondelut C18, Analytichem) angereichert.
# (§3) Nach Aktivierung dieser Säulen mit Methanol und Waschen mit doppelt destilliertem Wasser wurden die Proben auf die Säulen gegeben. Anschließend wurde mit doppelt destilliertem Wasser gewaschen und das gebundene Material mit 2 ml Chloroform/Methanol (2:1; v:v) eluiert. Nach dem Abdampfen des Lösungsmittelgemisches unter einem Stickstoffstrom wurden die Rückstände in jeweils 100 µl eines Gemisches aus 3 Teilen Acetonitril und 7 Teilen 20 mmol/l wässriger Phosphorsäure, pH 3 ("mobile Phase") gelöst. Die Auftrennung der Probenbestandteile erfolgte mit Hilfe der Hochdruckflüssigkeitschromatographie (20 µl Probe) über eine mit Nucleosil C18 (Partikelgrüße 5 µm) gefüllte Säule (12.5 x 0.46 cm).
# (§4) Zur Detektion wurde ein Fluoreszenzdetektor bei einer Exitations- bzw. Emissionswellenlänge von 495 bzw. 590 nm verwendet. Die quantitative Analyse von Adriamycin erfolgte mit Hilfe eines Integrators durch Bestimmung der Peakflächen unter Berücksichtigung der wiedergefundenen Menge an internem Standard und Vergleich mit Proben, die bekannte Mengen an Adriamycin enthielten.
# [4] = tested on: resistente L1210 Leukämiezellen; assay: Adriamycin uptake in adriamycin-resistant L1210 cells with and without a lipophilic anthracycline (HPLC/fluorescence); type: cell-based; conditions: for Adriamycinaufnahme (in % der unbehandelten Kontrolle ohne Zusatz) resistente L1210: 1 h, 37°C, resistant L1210; for Adriamycin-Aufnahme in adriamycinresistente L1210-Leukämiezellen: result in words, no concentration given
# Description: as §1, §2, §3, §4
# [5] = tested on: nicht resistente L1210 Leukämiezellen; assay: Proliferation test: cytotoxicity of Adriamycin on non-resistant L1210 cells with a lipophilic anthracycline present; type: cell-based; conditions: influence of the added lipophilic anthracycline; result in words
# [6] = pH 7, statement in text, room temperature (20°C) in b7, read-out: Oktanol-Wasser Verteilungskoeffizient P (converted)
# [7] = pH 7, octanol / Tris buffer pH 7, room temperature, * means greater than, read-out: P (converted)
Structure (SMILES),"logD [2, 6]","logD [2, 7]",Adriamycinaufnahme (in % der unbehandelten Kontrolle ohne Zusatz) L1210 ([3]; anthracycline 1 µg/ml),Adriamycinaufnahme (in % der unbehandelten Kontrolle ohne Zusatz) L1210 ([3]; anthracycline 10 µg/ml),Adriamycinaufnahme (in % der unbehandelten Kontrolle ohne Zusatz) resistente L1210 ([4]; anthracycline 1 µg/ml),Adriamycinaufnahme (in % der unbehandelten Kontrolle ohne Zusatz) resistente L1210 ([4]; anthracycline 10 µg/ml),Adriamycin-Aufnahme in adriamycinresistente L1210-Leukämiezellen [4],Oktanol-Wasser Verteilungskoeffizient P ([2]; room temperature (20°C) in b7),other results
COc1cccc2c1C(=O)c1c(O)c3c(c(O)c1C2=O)C[C@@](O)(C(=O)CO)C[C@@H]3O[C@H]1C[C@H](N)[C@H](O)[C@H](C)O1 [Doxorubicin],< 1,–,–,–,–,–,–,–,Resistenzgrad (IC₅₀ resistente L1210/IC₅₀ sensitive L1210) [1]: ~80
CC[C@@]1(O)C[C@H](O)c2c(O)c3c(c(O)c2[C@H]1C(=O)OC)C(=O)c1cccc(O)c1C3=O [epsilon-Rhodomycinon],–,> 3,–,–,–,–,–,–,–
CCCCCCN(C)[C@H]1C[C@H](O[C@H]2C[C@](O)(CC)[C@H](O)c3c(O)c4c(c(O)c32)C(=O)c2c(O)cccc2C4=O)O[C@@H](C)[C@H]1O [3'-N-Hexyl-3'-N-methyl-7-O-alpha-L-Daunosaminyl-ß-rhodomycinon],–,–,97%,97%,197%,197%,–,–,–
"CC[C@@]1(O)C[C@H](O[C@H]2C[C@H](N(C)C)[C@H](O[C@H]3C[C@H](O)[C@H](O[C@H]4CCC(=O)[C@H](C)O4)[C@H](C)O3)[C@H](C)O2)c2c(cc3c(c2O)C(=O)c2c(O)cccc2C3=O)[C@H]1C(=O)OC [ACM, Aclacinomycin]",~2.3,2.28,–,–,–,–,Erhöhung,–,"Adriamycin-Aufnahme in sensitive L1210 Zellen ([3]; result in words, no concentration given): nicht durch Aclacinomycin beeinflußt; zytotoxische Wirkung von Adriamycin auf nicht resistente L1210 Leukämiezellen [5]: nur schwach im Sinne einer additiven Wirkung beeinflußt"
CCCCCN(C)[C@H]1C[C@H](O[C@H]2C[C@](O)(CC)[C@H](O)c3c(O)c4c(c(O)c32)C(=O)c2c(O)cccc2C4=O)O[C@@H](C)[C@H]1O [3'-N-Pentyl-3'-N-methyl-7-O-alpha-L-Daunosaminyl-ß-rhodomycinon],–,–,87%,95%,166%,209%,–,–,–
CC[C@@]1(O)C[C@H](O)c2c(O)c3c(c(O)c2[C@H]1O)C(=O)c1cccc(O)c1C3=O [ß-Rhodomycinon],–,–,96%,96%,116%,186%,vergleichbare,> 100,–
COc1cccc2c1C(=O)c1c(O)c3c(c(O)c1C2=O)C[C@@](O)(C(C)=O)C[C@@H]3O[C@H]1C[C@H](N)[C@H](O)[C@H](C)O1 [Daunomycin],< 1,0.653,–,–,–,–,–,–,–
COc1cccc2c1C(=O)c1c(O)c3c(c(O)c1C2=O)C[C@@](O)(C(=O)CO)C[C@@H]3O[C@H]1C[C@H](N)[C@@H](O)[C@H](C)O1 [Epirubicin],< 1,–,–,–,–,–,–,–,–
CC[C@@]1(O)C[C@H](O)c2c(O)c3c(c(O)c2[C@H]1C(=O)OC)C(=O)c1c(O)ccc(O)c1C3=O [epsilon-iso-Rhodomycinon],–,–,90%,87%,146%,144%,vergleichbare,> 100,–
CC[C@@]1(O)CCc2c(O)c3c(c(O)c2[C@H]1O)C(=O)c1cccc(O)c1C3=O [gamma-Rhodomycinon],–,–,–,–,–,–,vergleichbare,> 100,–
